Results reported in the NIST ThermoML archive (doi:10.1021/je050333h).

Assay: cn = amount concentration of the nth substance listed, in mol/dm3
Details: 101 kPa, Liquid; for speed of sound: Sing-around technique in a fixed-path interferometer

CCCCC(CC)COC(=O)CC(C(=O)OCC(CC)CCCC)S(=O)(=O)[O-].[Na+] (stereo not given) [sodium bis(2-ethylhexyl) sulfosuccinate] + CC(C)CC(C)(C)C
Details	kinematic viscosity [m2/s]	mass density [kg/m3]	speed of sound [m/s]
293.15 K, c1 = 0.0993	8.03e-07	704.23	1103.5
293.15 K, c1 = 0.2006	9.05e-07	718.92	1104
293.15 K, c1 = 0.302	1.04e-06	736.65	1105.7
293.15 K, c1 = 0.4037	1.21e-06	754.54	1107.9
293.15 K, c1 = 0.5242	1.52e-06	775.5	1111.5
293.15 K, c1 = 0.6067	1.83e-06	794.1	1115.2
293.15 K, c1 = 0.7046	2.28e-06	812.69	1120.4
293.15 K, c1 = 0.8053	2.96e-06	829.38	1126.2
293.15 K, c1 = 0.9065	4.07e-06	847.23	1133.6
293.15 K, c1 = 1.012	5.97e-06	865.07	1142.4
298.15 K, c1 = 0.0987	7.58e-07	700.09	1082.4
298.15 K, c1 = 0.1994	8.56e-07	714.76	1083.1
298.15 K, c1 = 0.3003	9.87e-07	732.48	1085.1
298.15 K, c1 = 0.4017	1.14e-06	750.77	1087.3
298.15 K, c1 = 0.5213	1.42e-06	771.2	1091.2
298.15 K, c1 = 0.6034	1.67e-06	789.8	1095
298.15 K, c1 = 0.701	2.1e-06	808.51	1100.4
298.15 K, c1 = 0.8013	2.76e-06	825.19	1106.5
298.15 K, c1 = 0.902	3.73e-06	843	1113.8
298.15 K, c1 = 1.007	5.27e-06	860.81	1123
303.15 K, c1 = 0.0981	7.23e-07	695.93	1061.6
303.15 K, c1 = 0.1983	8.13e-07	710.7	1062.4
303.15 K, c1 = 0.2986	9.27e-07	728.39	1064.5
303.15 K, c1 = 0.3988	1.07e-06	745.5	1066.9
303.15 K, c1 = 0.5185	1.32e-06	767	1071.1
303.15 K, c1 = 0.6002	1.56e-06	785.6	1075
303.15 K, c1 = 0.6974	1.93e-06	804.41	1080.5
303.15 K, c1 = 0.7972	2.53e-06	820.98	1086.5
303.15 K, c1 = 0.8975	3.43e-06	838.76	1094.1
303.15 K, c1 = 1.002	4.77e-06	856.54	1103.7
313.15 K, c1 = 0.097	6.55e-07	687.78	1020.3
313.15 K, c1 = 0.1956	7.34e-07	700.9	1021.5
313.15 K, c1 = 0.2946	8.29e-07	718.5	1024
313.15 K, c1 = 0.3949	9.53e-07	738.2	1026.6
313.15 K, c1 = 0.5111	1.17e-06	756.1	1031.3
313.15 K, c1 = 0.5932	1.35e-06	776.5	1035.6
313.15 K, c1 = 0.6899	1.67e-06	795.7	1041.3
313.15 K, c1 = 0.7889	2.12e-06	812.51	1048.1
313.15 K, c1 = 0.8884	2.79e-06	830.24	1055.8
313.15 K, c1 = 0.9921	3.89e-06	847.98	1065.5
323.15 K, c1 = 0.0959	5.95e-07	680.26	979.8
323.15 K, c1 = 0.1937	6.66e-07	694.2	981.2
323.15 K, c1 = 0.2919	7.5e-07	712	984.1
323.15 K, c1 = 0.3904	8.59e-07	729.7	987.1
323.15 K, c1 = 0.505	1.04e-06	747	992.3
323.15 K, c1 = 0.5858	1.19e-06	766.8	996.8
323.15 K, c1 = 0.6822	1.47e-06	786.9	1002.8
323.15 K, c1 = 0.7807	1.83e-06	804.04	1009.9
323.15 K, c1 = 0.8792	2.35e-06	821.7	1018
323.15 K, c1 = 0.982	3.09e-06	839.35	1028
